These results are taken from article PMC3124771 (Journal of immunology (Baltimore, Md. : 1950), 2011).

This assay deals with DR0301-restricted E2_281-300-specific T-cell line. Nature of the assay: Tetramer staining of sorted T-cell line with peptide-loaded DR0301 tetramers. The class given is cell-based, human. The settings on record: quadrant boundary set by unloaded tetramer (Figure 2B).

“E2_285-300: truncated version of E2_281-300; minimal epitope”: the “Staining of T-cell line with tetramers loaded with peptide” value is on record as “could be stained”.
